Literature values in US20070065374A1, “Nanoparticulate leukotriene receptor antagonist/corticosteroid formulations” (Elan Pharma International Limited, priority 2005, published 2007).
Like-named read-outs stand apart in the source and are kept apart here.

How the values were obtained:
[1] = for time to peak plasma concentrations: after oral administration
[2] = since the approval of zafirlukast

effect of food on oral bioavailability ([1]; 5 mg tablet (pediatric dose)) | effect of food on oral bioavailability ([1]; 10 mg tablet (adult dose)) | time to peak plasma concentrations [1] | reduction of bioavailability by food ([1]; oral, in 75% of patients) | Churg-Strauss syndrome reported [2] | SMILES
reduced by food | unaffected by food | approximately three |  |  | CC(C)(O)c1ccccc1CC[C@@H](SCC1(CC(=O)O)CC1)c1cccc(/C=C/c2ccc3ccc(Cl)cc3n2)c1 [Montelukast]
 |  | approximately three | approximately 40% | at least eight | COc1cc(C(=O)NS(=O)(=O)c2ccccc2C)ccc1Cc1cn(C)c2ccc(NC(=O)OC3CCCC3)cc12 [Zafirlukast]
